In patent US11752122B2 (OKLAHOMA MEDICAL RESEARCH FOUNDATION, priority 2018, dated 2023):

Legend:
[1] = test system: mouse model; conditions: cited from earlier work
[2] = test system: ascending aortic constriction (AAC) model; test: Cardiac fibrosis in ascending aortic constriction (AAC) model; assay type: in vivo, mice; conditions: WT C57Bl/6 mice, very low concentration, preliminary unpublished data
Description: Ascending Aortic Constriction. Ascending aortic constriction was induced by controlled constriction of the ascending aorta as described previously 26. Briefly, mice were anesthetized with 1.5% isoflurane and the ascending aorta was surgically exposed by a mid-thorax incision. A 2 7-0 suture was placed around both the aorta and an adjacent 27-gauge (0.41 mm OD) needle proximal to the origin of the innominate artery. […] Mice were sacrificed and tissues collected 1 month after the surgery.

[3] = test system: LDLR mice on HFD; conditions: LDLR mice, very low concentration, preliminary unpublished data
Description: Mice. Hypercholesterolemic mice deficient for low-density lipoprotein receptors (Ldlr−/−), which only express ApoB-100 (Ldlr−/−Apob100/100, LDLR), were obtained from Jackson Laboratories (B6; 129SLdlrtm1HerApobtm2Sgy/J, stock no. 003000). WT C57bl/6 mice were also obtained from the Jackson Laboratory (stock no. 000664) and served as controls. TGF-β1^platelet-KO-LDLR mice (Pf4Cre+Tgfb1f/f;Ldlr−/−Apob100/100;) and TGF-β1^flox-LDLR littermate controls (Tgfb1f/f;Ldlr−/−Apob100/100) were generated by crossing LDLR mice with Pf4Cre+;Tgfb1f/f mice, as shown in FIGS. 7A-B and Supplemental Table 5. […] The inventor crossed Tie2Cre mice (stock no. 008863, Jackson Laboratories) with tdTomato lox-stop-lox mice (stock no. 007909, Jackson Laboratories) to generate Tie2Cre;tdTomato mice that express tdTomato only under Cre activity. All mice were housed in a controlled environment (23±2° C.; 12 hours light/dark cycles) and fed either a chow diet (CD) (PicoLab® Rodent Diet 20, 5053) or a customized high fat diet (HFD) (Harlan Teklad, TD.9612102. containing 21% milk fat (MF), 1.25% Cholesterol) in powdered form in a glass jar with perforated metal strainer (DYETS, Braintree Scientific Inc.). The Oklahoma Medical Research Foundation's Institutional Animal Care and Usage Committee approved all procedures.
Experimental Design. A total of 118 LDLR (58 Males, 60 Females) and 20 WT mice (10 Males, 10 Females) were used for this study. Half of the mice (6 weeks old) were switched to HFD and maintained for up to 9 months. Progression and severity (mild/moderate/severe) of AS were monitored at 0, 3, 6 and 9 months by echocardiography using non-invasive ultrasound imaging techniques. Five mice per cage (total of 25 males, 15 females) were treated with 2% N-acetylcysteine (NAC) (Acros Organics, 160280010) in drinking water. NAC was prepared in reverse osmosis water and its pH was adjusted to 7.4 with NaOH. Water was replaced with a fresh solution every week.
Echocardiography. Mice were anesthetized with Isoflurane (3-5% inhalation) in an induction chamber. Mice that appeared to be sick due to severe stenosis or that were underweight were anesthetized using a lower isoflurane level to prevent adverse or lethal effects from the anesthetic. Once visibly anesthetized, isoflurane was reduced to 0.5%-2% and the mouse was moved from the chamber to a nose-cone on a heated platform set at 40° C. to maintain body temperature (35±2° C.). Heavier mice were maintained at higher isoflurane levels as they appeared less sensitive to its anesthetic effects. All four limbs were taped to physiological electrodes and a rectal temperature probe was inserted. Electrode gel was used to enhance the physiologic readings. To ensure accuracy of all echo measurements, physiological parameters were monitored and recordings were only taken if the heart rate was 430-550 beats per minute, respiration was 20-100 breaths per minute, and body temperature was close to 37° C. (35±2° C.).
Measurement of AS parameters using a modified view of ultrasound imaging. Echocardiography is the gold standard non-invasive method to measure AS in humans. However, the mouse heart rate is 10-times faster (500 to 600 beats per minute), making the acquisition of high-resolution images of the very thin non-diseased valves challenging. […] LVOT was measured from the long-axis view and was used to calculate AV pressure and normalize the cusp separation (Lindman et al., 2016; Meyer et al., 2012). This view was obtained by tilting the lower left corner of the platform downward by about 30° and angling the transducer up such that it interfaced with the chest cavity by about 45°.

[4] = 2007 study; cited from earlier work

CC(=O)N[C@@H](CSN=O)C(=O)O [SNOAC, S-nitroso-N-acetylcysteine]
hypoxia-like response in gene expression ([1]; in vitro and in vivo): induced a hypoxia-like response | blood pressure in the lungs and right ventricle of the heart (pulmonary artery hypertension) ([1]; mice treated with acetylcysteine, metabolite SNOAC): increased

Cc1cccc(-c2nn3c(c2-c2ccnc4ccc(C(N)=O)cc24)CCC3)n1 [galunisertive]
cardiac fibrosis induced by ascending aortic constriction [2]: inhibited cardiac fibrosis | AS progression [3]: halted AS progression

CC(C)c1nc(N(C)S(C)(=O)=O)nc(-c2ccc(F)cc2)c1/C=C/[C@@H](O)C[C@@H](O)CC(=O)O [rosuvastatin]
aortic stenosis progression [4]: slowing of aortic stenosis
